The source of these data is publication PMC6268773, “Aminodi(hetero)arylamines in the Thieno[3,2-b]pyridine Series: Synthesis, Effects in Human Tumor Cells Growth, Cell Cycle Analysis, Apoptosis and Evaluation of Toxicity Using Non-Tumor Cells” (Molecules, 2012).

Data set [1] concerns HepG2 (hepatocellular carcinoma). Description: SRB cell growth inhibition assay, HepG2. In kind it is cell-based. Particulars: Homo sapiens, HepG2, 48h continuous treatment, mean ± SD, n = 3. As for the experimental part:
(§1) The effects of the aminodi(hetero)arylamines in the growth of four human tumour cell lines (MCF-7, A375-C5, NCI-H460 and HepG2) were evaluated using the SRB assay. Doxorubicin and ellipticine were used as positive controls. Furthermore, to investigate the possible toxicity of the compounds, the in vitro cell growth inhibition assay (SRB) was also performed using porcine liver non-tumor cells (PLP1) established by us.
(§2) Four human tumor cell lines, MCF-7 (breast adenocarcinoma), A375-C5 (melanoma), NCI-H460 (non-small cell lung cancer) and HepG2 (hepatocellular carcinoma) were used. MCF-7, A375-C5 and HepG2 were obtained from the European Collection of Cell Cultures (ECACC, Salisbury, UK) and NCI-H460 was kindly provided by the National Cancer Institute (NCI, Bethesda, MD, USA). Cells were routinely maintained as adherent cell cultures in RPMI-1640 medium supplemented with 5% FBS (MCF-7, NCI-H460 and A375-C5 cells) or in DMEM supplemented with 10% FBS, 2 mM glutamine, 100 U/mL penicillin and […] streptomycin (HepG2 cells), at 37 °C in a humidified atmosphere containing 5% CO2.
(§3) The effects of the compounds on the in vitro growth of human tumor cell lines and non-tumor porcine liver primary cells were evaluated according to the procedure adopted by the NCI (USA) in their “In vitro Anticancer Drug Discovery Screen”, using the SRB assay to assess cell growth.
(§4) For the cell lines, exponentially growing cells were obtained by plating 1.5 × 10^5 cells/mL for MCF-7, 0.75 × 10^5 cells/mL for A375-C5 and NCI-H460, and 5.0 × 10^5 cells/mL for HepG2, followed by 24 h of incubation. For the primary porcine liver cells, cells were incubated in 96-well plates at a density of 5.0 × 10^5 cells/mL, and cultivated in DMEM medium with 10% FBS, 100 U/mL penicillin and […] streptomycin.
(§5) Following a 24 h period to allow cells to adhere, cells were treated for 48 h with six serial dilutions of each test compound, starting from a maximum concentration of 125 µM. Following the 48 h treatment period, adherent cells were fixed in situ, washed and stained with SRB. The bound stain was solubilized and the absorbance was measured at 492 nm in the case of MCF-7, NCI-H460 and A375-C5 cells and at 515 nm in the case od HepG2 and PLP1 primary cells, in a plate reader (Biotek Instruments Inc., Powerwave XS, Bedfordshire, UK). Dose response curves were obtained and the concentration of the diarylamine that inhibited 50% of the net cell growth (GI50) was calculated as described elsewhere. Doxorubicin and ellipticine were used as positive controls of cell growth inhibition.

The nature of data set [2]: SRB toxicity assay in non-tumor porcine liver primary cells. The class given is cell-based. Conditions: pig, porcine liver primary cell culture (PLP1), non-tumor, PLP1 non-tumor porcine liver cells, 48h continuous treatment, SRB, mean ± SD, n = 3. As for the experimental part: as §1
(§6) Porcine liver primary cell culture (PLP1) was prepared from freshly harvested porcine liver, obtained from a local slaughter house. Briefly, the liver tissue was rinsed in HBSS solution containing 100 U/mL penicillin, 100 µg/mL streptomycin and divided into 1 × 1 mm^3 explants. Some of these explants were placed in 25 cm^2 tissue flasks in DMEM medium supplemented with 10% FBS, 2 mM nonessential amino acids, 100 U/mL penicillin and […] streptomycin. This cell culture was maintained according to the procedure described previously by us.
as §3, §4, §5

Data set [3] concerns porcine liver primary cell culture (PLP1). Described as above. In kind it is cell-based. As for the experimental part:
as §1, §6, §3, §4, §5

The subject of data set [4] is MCF-7 (breast adenocarcinoma). Kind of data set: SRB cell growth inhibition assay, MCF-7. Conditions: Homo sapiens, MCF7, MCF-7, 48h continuous treatment, mean ± SD, n = 3. The class given is cell-based. As for the experimental part: as §1, §2, §3, §4, §5
The next data set deals with A375-C5 (melanoma). Description: SRB cell growth inhibition assay, A375-C5. Conditions: Homo sapiens, A375-C5, 48h continuous treatment, mean ± SD, n = 3. In kind it is cell-based. As for the experimental part:
as §1, §2, §3, §4, §5

Data set [5] has as its system NCI-H460 (non-small cell lung cancer). Kind of data set: SRB cell growth inhibition assay, NCI-H460. Conditions: Homo sapiens, NCI-H460, 48h continuous treatment, mean ± SD, n = 3. The class given is cell-based. The method, then:
as §1, §2, §3, §4, §5

Data set [6] has as its system NCI-H460 cells. Description: Cell cycle distribution profile by flow cytometry (propidium iodide). The class given is cell-based, human. Particulars: NCI-H460, compound at GI50 concentration (1.4 μM), 48 h. As for the experimental part:
NCI-H460 cells were plated in 6-well plates at a final density of 1.5 × 10^5 cells/well and incubated at 37 °C for 24 h. […] As controls, cells were also incubated with medium only (blank) and with the compound’s vehicle (DMSO). Following 48 h of treatment, cells were fixed overnight in ice-cold 70% ethanol and re-suspended in PBS containing 0.1 mg/mL RNase A and 5 µg/mL propidium iodide. Cellular DNA content was analysed by flow cytometry using an Epics XL-MCL Coulter Flow cytometer (Brea, CA, USA) plotting at least 20,000 events per sample, as previously described. The analysis of cell cycle distribution was subsequently performed using the FlowJo 7.2 software (Tree Star, Inc., Ashland, USA) after cell debris and aggregates exclusion.
On the technique in general: In flow cytometry, cells or beads pass a laser one at a time.

The test system of data set [7] is NCI-H460 cells. Description: Apoptosis by flow cytometry (Annexin V-FITC/PI). The class given is cell-based, human. Conditions: NCI-H460, compound at GI50 concentration (1.4 μM), 48 h, Annexin V/Propidium iodide. The method, then: Following 48 h treatment of NCI-H460 cells with compound 3c, as described above, the levels of apoptosis were analysed by flow cytometry using the Human Annexin V-FITC/PI apoptosis kit (Bender MedSystems, Vienna, Austria), according to the manufacturer’s instructions. Flow cytometry was carried out using an Epics XL-MCL Coulter flow cytometer plotting at least 20,000 events per sample, as previously described. The data was analysed using the FlowJo 7.2 software (Tree Star, Inc.).

The test system of data set [8] is human tumor cell lines MCF-7, A375-C5, NCI-H460 and HepG2. Kind of data set: SRB cell growth inhibition, all tested human tumor cell lines (summary). The class given is cell-based. Conditions: span over MCF-7, A375-C5, NCI-H460, HepG2, 48 h. The method, then: as §1, §3
For the cell lines, exponentially growing cells were obtained by plating 1.5 × 10^5 cells/mL for MCF-7, 0.75 × 10^5 cells/mL for A375-C5 and NCI-H460, and 5.0 × 10^5 cells/mL for HepG2, followed by 24 h of incubation. […]
Following a 24 h period to allow cells to adhere, cells were treated for 48 h with six serial dilutions of each test compound, starting from a maximum concentration of 125 µM. […] The bound stain was solubilized and the absorbance was measured at 492 nm in the case of MCF-7, NCI-H460 and A375-C5 cells and at 515 nm in the case od HepG2 and PLP1 primary cells, in a plate reader (Biotek Instruments Inc., Powerwave XS, Bedfordshire, UK). […]

SMILES strings stand for the structures.

The term melting point denotes the temperature, or range, at which the solid turns liquid. In the case of `COC(=O)c1sc2cccnc2c1Nc1ccc(OC)cc1[N+](=O)[O-]` [2c, Methyl 3-(4-methoxy-2-nitrophenylamino)thieno[3,2-b]pyridine-2-carboxylate], the melting point was in the range of 213 to 214 °C.
In general, GI50 refers to the concentration that inhibits growth by half. On to `Cc1c2ccncc2c(C)c2c1[nH]c1ccccc12` [Ellipticine, reference compound], for which the GI50 was 0.8 ± 0.05 µM in data set [1] and 4.19 µM in [3] (PLP1 non-tumor porcine liver cells, 48h continuous treatment, SRB, mean ± SD, n = 3). This compound also displayed a GI50 at 48 h in data set [2] of 4 µM.
As to `COc1cccc2c1C(=O)c1c(O)c3c(c(O)c1C2=O)C[C@@](O)(C(=O)CO)C[C@@H]3O[C@H]1C[C@H](N)[C@H](O)[C@H](C)O1` [Doxorubicin, reference compound], the GI50 was 0.04 ± 0.01 µM in data set [4], 0.13 ± 0.01 µM in the data set with A375-C5 (melanoma) and 0.09 ± 0.01 µM in data set [5].
In the case of `COC(=O)c1sc2cccnc2c1Nc1ccc(N)cc1` [3a, Methyl 3-(4-aminophenylamino)thieno[3,2-b]pyridine-2-carboxylate], the 50% growth inhibitory concentration (GI50) was over 125 µM in data set [4], 112 ± 5 µM in the data set with A375-C5 (melanoma), over 125 µM in data set [5] and over 125 µM in [1]. The same compound gave a GI50 at 48 h in data set [2] of over 125 µM.
The compound `COC(=O)c1sc2cccnc2c1Nc1ccccc1N` [3b, Methyl 3-(2-aminophenylamino)thieno[3,2-b]pyridine-2-carboxylate] gave a melting point of 204 to 206 °C. It took 33.8 ± 1.7 µM to inhibit growth in data set [4] by half (GI50). The compound also returned a GI50 in the data set with A375-C5 (melanoma) of 26 ± 2.3 µM. This compound gave a GI50 in data set [5] of 31.3 ± 2.9 µM. Moreover, in data set [1], the 50% growth inhibitory concentration (GI50) is 99.26 ± 0.92 µM. The compound also came in with a 50% growth inhibitory concentration (GI50) at 48 h in [2] of 61.3 µM.
With `COC(=O)c1sc2cccnc2c1Nc1ccc([N+](=O)[O-])cc1` [2a, Methyl 3-(4-nitrophenylamino)thieno[3,2-b]pyridine-2-carboxylate], the melting point is 203 to 205 °C.
`COC(=O)c1sc2cccnc2c1Nc1ccccc1[N+](=O)[O-]` [2b, Methyl 3-(2-nitrophenylamino)thieno[3,2-b]pyridine-2-carboxylate]: the melting point was 202 to 204 °C.
Compound `COC(=O)c1sc2cccnc2c1Nc1ccc(OC)cc1N` [3c, Methyl 3-(2-amino-4-methoxhyphenylamino)thieno[3,2-b]pyridine-2-carboxylate] showed a melting point of 172 to 174 °C. The same compound had a concentration for 50% growth inhibition (GI50) in data set [4] of 1.4 ± 0.2 µM. This compound displayed a GI50 in the data set on A375-C5 (melanoma) of 1.3 ± 0.1 µM. The same compound came in with a concentration for 50% growth inhibition (GI50) in data set [5] of 1.4 ± 0.4 µM. Besides, growth in data set [1] was halved (GI50) at 1.63 ± 0.09 µM. Growth in [2] was halved (GI50 at 48 h) at 12.5 µM. Further, in [3] (PLP1, at the GI50 concentrations found in tumor cell lines / versus ellipticine), the “toxicity to non-tumor cells (in words)” value is on record as “did not show toxicity”. For the same compound, the “percentage of cells in the G0/G1 phase of the cell cycle (in words)” value with NCI-H460 cells [6] is “significant decrease”. Besides, the “% of cells in the sub-G1 peak (in words)” value with NCI-H460 cells [6] (data not shown) is recorded as “significantly increased”. The “percentage of apoptotic cells” value in the data set with NCI-H460 cells [7] is given as 36.6 ± 4.8%. In data set [8], this compound showed a GI50 of under 2 µM.
